# “Also recorded” adds a separate entry of the source.
# What was measured:
# Type in all cases: cell-based, murine
# [1] = test system: naïve BV2 microglial cells; assay: LDH toxicity assay (CytoTox-ONE) on naïve BV2 microglial cells; settings: 5 hours of treatment (FIG. 1)
# Experimental: (§1) As shown in the figures, compounds were selected and tested in microglial and 3D AD cell culture models at a range of concentrations, and over a period of time ranging from hours to days. The culture models were chosen to elucidate different stages and biological aspects of Alzheimer's disease. The toxicity of the compounds was assessed analyzing the cultures media with the commercially available assay (CytoTox-ONE™, Promega) that measures the release of LDH. Toxic concentrations were excluded from further testing. For microglial cultures, Aβ42 and Aβ40 uptake assays were carried forward for 2 to 24 hours following 3 hours of compound pre-treatment. The experimental outcomes were determined by measuring increased internalized Aβ42 and Aβ40 levels by a commercially available ELISA assay (Wako Abeta42 ELISA kit). Alternatively, LPS-activation assays were carried forward for 3 h following 3 hours of compound pre-treatment. The reduction of toxic cytokines released in the culture media was monitored.
# (§2) Naïve BV2 Cells, or BV2 stably expressing wt-CD33, were seeded in 24-well plates at the density of 2.5×10E5 cells for BV2 and 4×10E5 cells for wt-CD33 clone, in proliferating media. On the following day, cells were treated with compounds, or DMSO as a control, at different concentrations in proliferating media for 3 hours. For Abeta42 and Abeta40 uptake assays, cells were washed twice with 500 μL/well of PBS and treated with compounds/DMSO in the presence of 300 nM Abeta peptide in DMEM media for 2 hours. At the end of the 2 hour incubation, 150 μL of media were collected from the 24-well plates. They were centrifuged at 4° C., 2500 rpm for 10 min, transferred to new plates and used to assess compounds toxicity with CytoTox-ONE™ (LDH) assay. […] Protein concentrations in the lysate supernatants were determined with the Pierce™ BCA protein assay kit. 2-3 μg/well of protein from the lysates was analyzed for Abeta42 uptake using the Wako Abeta42 ELISA kit. […]
# [2] = test system: wtCD33-expressing microglial cells; assay: LDH toxicity assay (CytoTox-ONE) on wtCD33-expressing microglial cells; settings: 5 hours of treatment (FIG. 2)
# Experimental: as §1, §2
# [3] = test system: naïve BV2 microglial cells; assay: Abeta42 uptake assay into naïve BV2 microglial cells (Wako Abeta42 ELISA); settings: naïve BV2, 3 h pre-treatment, 300 nM Abeta42 for 2 h (FIG. 3)
# Experimental: as §1
# (§3) Naïve BV2 Cells, or BV2 stably expressing wt-CD33, were seeded in 24-well plates at the density of 2.5×10E5 cells for BV2 and 4×10E5 cells for wt-CD33 clone, in proliferating media. […] Protein concentrations in the lysate supernatants were determined with the Pierce™ BCA protein assay kit. 2-3 μg/well of protein from the lysates was analyzed for Abeta42 uptake using the Wako Abeta42 ELISA kit. […]
# [4] = test system: wt-CD33 expressing BV2 cells; assay: Abeta42 uptake assay into wt-CD33 expressing BV2 cells (Wako Abeta42 ELISA); settings: wt-CD33 expressing BV2, 3 h pre-treatment, 300 nM Abeta42 for 2 h (FIG. 4)
# Experimental: as §1, §3
# [5] = test system: naïve BV2 microglial cells; assay: Abeta40 uptake assay into naïve BV2 microglial cells (Cisbio Abeta40 HTRF); settings: naïve BV2, 3 h pre-treatment, 300 nM Abeta40 for 2 h (FIG. 5)
# Experimental: as §1, §3
# [6] = test system: wt-CD33 expressing BV2 cells; assay: Abeta40 uptake assay into wt-CD33 expressing BV2 cells (Cisbio Abeta40 HTRF); settings: wt-CD33 expressing BV2, 3 h pre-treatment, 300 nM Abeta40 for 2 h (FIG. 6)
# Experimental: as §1, §3
# [7] = test system: LPS-activated BV2 microglial cells; assay: BV2 LPS activation cytokine assay (MSD Proinflammatory Panel 1); settings: BV2, 1 μg/mL LPS 3 h, maleate
# Experimental: as §1
# For microglial activation experiments, cells were treated with compounds/DMSO in the presence of 1 μg/mL LPS in proliferating media for 3 hours. The media was collected, cleared of particulate and analyzed using MSD Proinflammatory Panel 1 cytokine assay kit.
# FIG. 7 tabulates the results from an LPS activation testing of microglial cells, showing that cytokines KC/GRO, IL-6, IL-10 and TNF-α were detectable upon LPS activation, although KC/GRO was only detectable in undiluted media. The 10 cytokines were simultaneously analyzed in microglial conditioned media. FIG. 8-15 show the results for an assay to test the effect of test compounds DMSO, 817MA, 817A11 and 614P on cytokines KC/GRO, IL-6, IL-10 and TNF-α. […] The two sequential assays determine which if any cytokines are detected upon LPS activation, followed by determination of the reduction in detectable cytokines upon treatment/exposure to a test compound.
# [8] = test system: naïve BV2 microglial cells; assay: LDH toxicity assay in microglial cells, 24-hour pre-treatment protocol; settings: 24 h pre-treatment (FIG. 25)
# Experimental: (§4) The protocol used for 24-hour pre-treatment testing in microglial cells was as follows.
# (§5) On day zero the naïve BV2 microglial cells were seeded in proliferating media.
# (§6) On day one the cells were then treated with 817MA, or DMSO as a control, in proliferating media for 24 hours, at concentrations ranging from 0 to 50 μM.
# (§7) On day two the cells were then washed twice with PBS and treated with compounds/DMSO in the presence of 300 nM Abeta42 peptide in DMEM media for 2 hours. The compounds toxicity was assessed in the media collected at the end of the treatment with CytoTox-ONE™ (LDH) assay. The remaining cells were lysed with RIPA buffer supplemented with protease and phosphatase inhibitors. Protein concentrations were determined with the Pierce™ BCA protein assay kit. Normalized lysates were analyzed for Abeta42 uptake using the Wako Abeta42 ELISA kit.
# [9] = test system: naïve BV2 microglial cells; assay: Abeta42 uptake assay in microglial cells, 24-hour pre-treatment protocol
# Experimental: as §4, §5, §6, §7
Abeta42 uptake EC50 (comparison between compounds) [3],Abeta42 uptake EC50 (comparison between compounds) [4],"EC50 ([9]; Mus musculus, BV-2, following 24 hours of compound pre-treatment (FIG. 26))",SMILES,LDH toxicity [1],LDH toxicity [2],Abeta40 uptake EC50 (comparison between compounds) [5],Abeta40 uptake EC50 (comparison between compounds) [6],"TNFα production upon LPS activation ([7]; first and second experiment (FIG. 8, 9))","IL-6 production upon LPS activation ([7]; first and second experiment (FIG. 10, 11))","IL-10 production upon LPS activation ([7]; first and second experiment (FIG. 12, 13))",LDH toxicity compared to DMSO ([8]; at about 30 μM),LDH toxicity ([8]; below about 50 μM),"Abeta42 uptake versus DMSO control ([9]; above about 1 μM, 24 h pre-treatment (FIG. 26))"
higher EC50,higher EC50,,"CS(=O)(=O)Nc1cc2occ(NC=O)c(=O)c2cc1Oc1ccccc1 [Compound 614P, N-(3-formamido-4-oxo-6-phenoxy-4H-chromen-7-yl)]",No statistically significant toxicity,No statistically significant toxicity,higher EC50 than both 817MA and 817A11,higher EC50 than both 817MA and 817A11,,,,,,
,,,"O=C(CCOCCc1ccc2sccc2c1)N1CC(O)C1 [Compound 817A11, 1-{3-[2-(1-benzothiophen-5-yl)ethoxy]propionyl}azetidin-3-ol]",No statistically significant toxicity,No statistically significant toxicity,lower EC50 Abeta40 uptake than 817MA treated cells,lower EC50 Abeta40 uptake than 817MA treated cells,,,,,,
,,~20 µM,"O=C(O)/C=C\C(=O)O.OC1CN(CCCOCCc2ccc3sccc3c2)C1 [Compound 817MA, 1-(3-(2-(1-benzothiophen-5-yl)ethoxy)propyl)azetidin-3-ol maleate]",No statistically significant toxicity,No statistically significant toxicity,,,reduced concentrations; also recorded: only compound effectively reducing TNFα production,reduced concentrations; also recorded: most effective compound for reducing IL-6 production,reduced concentrations; also recorded: most effective compound for reducing IL-10 production,no statistically significant toxicity,low or no toxicity,greater than the DMSO control
